Values of other authors, collected in patent US20020150627A1, “Composition containing creatine and phosphorus” (priority 2001, published 2002).
Where two headings read alike, the source gives them in different places.

Experiments:
subjects = conditions: for Increase power output compared to placebo according to Wallace et al: four times daily for 5 days
skeletal muscle = conditions: 4×5 gram creatine per day for five to six days
[1] = 1000 mg four times daily for 5 days

SMILES	VO2 max elevated (subjects; [1]) [%]	Ventilatory anaerobic threshold elevated (subjects; [1]) [%]	Increase power output compared to placebo according to Wallace et al (subjects) [%]	Increase power output compared to placebo according to Wallace et al (subjects; listed as phosphate) [%]	Increase of skeletal muscle creatine content (average) (skeletal muscle) [%]	Phosphocreatine share of the increase in skeletal muscle creatine content (skeletal muscle) [%]	Increase power output compared to placebo according to Wallace et al (subjects; listed as Creatine, monohydrate) [%]	Increase power output compared to placebo according to Wallace et al (subjects; listed as creatine, monohydrate) [%]
O=P([O-])([O-])[O-].[Na+].[Na+].[Na+] [Phosphate, tribasic sodium phosphate]	8	10	3	3				
CN(CC(=O)O)C(=N)N.O [creatine monohydrate]					20	20	3	3
